Results from patent publication US7763596B2, “Selective glucocorticoid receptor agonists” (The University of Manchester, priority 2000, dated 2010).

Legend:
[1] = system: tyrosine amino transferase (TAT); test: Quantitation of tyrosine amino transferase (TAT) in the livers of air pouch mice; assay type: in vivo; conditions: 3 μg i.p., FIG. 22
Method: (§1) At time 0, mice received either 0.5 ml of zymosan (1 mg) (group A, B, C) injected locally into the air-pouch. Group D and E were left untreated at this time-point. At 4 h post-zymosan the animals were placed in CO2. Air-pouches were then washed with 2 ml of PBS containing 3 mM EDTA, and livers were recovered and snap frozen for later analysis.
Quantitation of Tyrosine Amino Transferase (TAT) Protein in the Livers: In this method a colourimetric approach is used to quantitate TAT activity. The TAT enzyme catalyses the following reaction: L-tyrosine+2-oxoglutarate⇄4-hydroxyphenylpyruvate (pHPP)+L-glutamate
This reaction also requires pyridoxal phosphate (PLP) as a co-factor. Strong alkali conditions can then be used to convert pHPP to p-hydroxybenzaldehyde (pHBA) and oxalate. The amount of pHBA can then be assessed by measuring its absorbance at 331 nm (extinction coefficient 19,900 M^−1cm^−1) this figure is then assumed to be directly proportional to TAT activity. Livers were homogenized and the cells were stored on ice. […]
For each reaction a control reaction was set up without the ketoglutarate. […] The samples were incubated at room temperature for a further 30 mins and then the absorbance of each sample was assessed at 331 nm on a spectrophotometer (Ultrospec III, Pharmacia).

[2] = system: zymosan induced neutrophil migration; test: Air pouch model of inflammation, zymosan induced neutrophil migration; assay type: in vivo, mice
Method: Male outbred Swiss albino mice (18-20 g body weight) were purchased from Bantin and Kingman (T.O. strain; Hull, Humberside) and maintained on a standard chow pellet diet with tap water ad libitum and a 12:00 h light/dark cycle. All animals were housed for 3 days prior to experimentation to allow body weight to reach 20-22 g. On the day of experiment mice ranged from 24-26 g.
Air-pouches were formed on the back of mice by air injection (2.5 ml s.c.) on day 0 and day 3 (Perretti and Flower, 1993).
Zymosan A was allowed to defrost at room temperature for 30 min prior to being added to sterile PBS at a concentration of 2 mg/ml forming a homogenous suspension.
as §1
The number of migrated leukocytes (≧90% polymorphonuclear leukocytes, PMN) was determined in the lavage fluid from each air-pouch, by taking an aliquot (100 μl) of the lavage fluid and diluting 1:10 in Turk's solution (0.01% crystal violet in 3% acetic acid). The samples were then vortexed and 10 μl of the stained cell solution were placed in a Neubauer haematocymometer and neutrophils numbers counted using a light microscope (Olympus B061).
Neutrophil numbers were compared between groups using ANOVA plus the Bonferroni test. TAT levels were compared using a t-test.

glucocorticoid receptor = target: T1, glucocorticoid receptor (Homo sapiens, UniProt P04150); test: Transrepression assay using artificially expressed glucocorticoid receptor and P65 in the COS 7 cell line (NRE luciferase); assay type: cell-based; design: expressed in transfected cells; host or cells: COS 7 (African green monkey kidney, deficient in endogenous GR); conditions: 1, 10 and 100 nM
T1 sequence (P04150 1-777): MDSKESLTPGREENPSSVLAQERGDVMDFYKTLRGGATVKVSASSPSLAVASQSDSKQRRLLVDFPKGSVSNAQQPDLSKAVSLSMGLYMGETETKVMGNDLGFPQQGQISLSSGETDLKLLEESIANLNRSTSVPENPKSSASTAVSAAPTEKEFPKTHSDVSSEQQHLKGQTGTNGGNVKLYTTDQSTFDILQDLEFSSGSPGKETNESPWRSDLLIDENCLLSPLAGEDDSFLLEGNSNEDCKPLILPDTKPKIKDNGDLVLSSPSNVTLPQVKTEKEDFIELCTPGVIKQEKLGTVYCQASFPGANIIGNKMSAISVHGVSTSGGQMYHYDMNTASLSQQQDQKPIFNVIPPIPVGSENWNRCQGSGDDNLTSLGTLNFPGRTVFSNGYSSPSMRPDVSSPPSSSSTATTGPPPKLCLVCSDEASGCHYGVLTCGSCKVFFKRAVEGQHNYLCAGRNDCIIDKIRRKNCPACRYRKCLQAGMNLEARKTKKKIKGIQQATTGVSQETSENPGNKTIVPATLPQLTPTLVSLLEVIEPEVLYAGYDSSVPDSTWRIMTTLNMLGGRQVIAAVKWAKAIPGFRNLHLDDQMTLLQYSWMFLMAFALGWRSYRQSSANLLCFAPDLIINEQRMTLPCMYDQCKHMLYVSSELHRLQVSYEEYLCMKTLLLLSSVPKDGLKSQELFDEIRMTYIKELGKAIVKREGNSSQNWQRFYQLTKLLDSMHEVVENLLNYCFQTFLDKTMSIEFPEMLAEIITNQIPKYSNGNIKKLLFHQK
Method: All transfections were performed using lipofectamine plus (Gibco BRL), according to the manufacturers' instructions, as previously described^1. Briefly, all cells were seeded at 5×10^5 per 10 cm tissue culture plate 18 hours before transfection, the next day the relevant plasmids were mixed with serum free medium and “Plus” reagent (Gibco BRL) and incubated for 15 mins, lipofectamine reagent was added and the mix was incubated for a further 15 mins, this mix was added to the cells on serum free medium in the 10 cm tissue culture plates and left for 3 hours, the cells were then trypsinised and divided into 24 well plates, the cells were left to recover overnight and were treated with steroid for 16 hours before harvest. All experiments were performed from one transfection in triplicate and on separate occasions with similar results.
The firefly luciferase gene catalyses the production of light from the substrate luciferin. When plasmid constructs containing this gene are transfected into cell lines the activity of the gene can be assessed by the intensity of the luminesence. The luciferase assay yields luminescence through an ATP-dependent oxidation of luciferin the amount of light produced can be measured by a luminometer and is a measure of gene activity (Davis, 1996). Light intensity was measured in a Luminometer (LB 9501, Berthold). The light intensity should be proportional to luciferase concentration in the range of 10^−16M (10 μg/L) to 10^−8M (1 mg/L). To measure the luminescence of the treated cells 150 μl of 1× reporter lysis buffer (RLB: 25 mM Tris phosphate pH7.8, 10 mM MgCl2, 15% Glycerol, 1% Triton, 1 mM EDTA) was added to the 24 well plates to lyse the cells and incubated at room temperature for 30 mins whilst being shaken. Then 100 μl of the room temperature cell extract were mixed with 100 μl of room temperature Luciferase Assay Reagent (LAR: 1 mM ATP, 0.3 mM D-Luciferin, 66% RLB). This reaction was mixed in a luminometer (LB 9501, Berthold) and the light produced was measured for a period of 5 seconds.
To perform this assay the GR and p65 were artificially expressed in a cell line lacking GR and deficient in endogenous P65. The ability of P65 to activate an NFkB response element (NRE) “driving” a luciferase reporter gene could then be repressed by GR in a ligand dependent manner and, therefore, used to measure transrepression.
COS7 cells were transfected with 1 μg pcDNA3-GR and 3 μg NRE-Luc and 200 ng p65 per 10 cm tissue culture dish. The cells were plated out in to 24 well plates after transfection and left for 18 hours to recover before the steroids of FIGS. 1 and 2A were added. After another 18 hour incubation the cells were lysed and a luciferase assay was performed.

endogenous GR = target: T2, endogenous GR (Homo sapiens, UniProt P04150); test: Transrepression assay using endogenous GR in the A549 lung epithelial cell line (TNF, NRE luciferase); assay type: cell-based; conditions: compound G at 1, 10, 100 and 500 nM
T2 construct: This cell line contains functional endogenous GR; endogenous in cells; host or cells: A549
T2 sequence (P04150 1-777): T1 sequence (P04150 1-777)
Excerpt: (§2) The A549 cell line (ECACC:86012804) is derived from the human lung epithelial cells from a carcinoma. This cell line contains functional endogenous GR and is stimulated by Tumour Necrosis Factor (TNF) to produce IL-8.
In this assay TNF was used to stimulate NFkB activity in a cell line that expressed endogenous GR. The ability of NFkB to activate an NRE “driving” a luciferase reporter gene could then be repressed by GR in a ligand dependent manner and, therefore, used to measure transrepression.
COS7 cells were transfected with 3 μg NRE-Luc per 10 cm tissue culture dish. The cells were plated out in to 24 well plates after transfection and left for 18 hours to recover before the steroids of FIGS. 1 and 2 were added. Next TNF was added to the samples after 3 hours incubation with the steroids and after another 15 hours the cells were lysed and a luciferase assay was performed.

IL-8 = test: Repression of endogenous IL-8 in A549s; assay type: cell-based, human; conditions: A549 cells; compound G at 100 nM, p=0.0076
Excerpt: as §2
In this assay TNF was used to stimulate NFkB activity in a cell line that expressed endogenous GR. The ability of NFkB to induce IL-8 gene transcription could then be repressed by GR in a ligand dependent manner and, therefore, used to measure transrepression.
COS7 cells were transfected with 3 μg NRE-Luc per 10 cm tissue culture dish. The cells were plated out in to 24 well plates after transfection and left for 18 hours to recover before the steroids of FIGS. 1 and 2A were added. After incubation for 3 hours with the steroids, TNF was added to the samples and after another 15 hours an IL-8 assay (R&D systems) was performed on the cell supernatants according to the manufacturers instructions. Briefly, triplicates of 100 μl of a 1:2 dilution of cell supernatant and 100 μl of a known dilution series of IL-8 were added to the wells of a microtitre plate coated with a monoclonal IL-8 antibody, the samples were incubated with a polyclonal biotinylated IL-8 antibody for 1 hour at room temperature and washed. Streptavidin horse radish peroxidase solution was then added to all wells and incubated for 30 mins before being washed. Tetramethyl benzidine (TMB; a chromagen) was added to all the wells and incubated in the dark for 10 mins, the reaction was stopped by the addition of H2SO4 and the absorbance of each well was read on a spectrophotometer using 450 nm as the primary wavelength. Regression analysis was performed on the standard data and the unknowns were expressed as pg/ml of IL-8 in comparison to the standards.

GFP tagged GR = target: T3, GFP tagged GR (Homo sapiens, UniProt P04150); test: Nuclear translocation using GFP tagged GR and fluorescent microscopy; assay type: cell-based; conditions: COS 7 cells, 100 nM, 3 hours
T3 construct: expressed in transfected cells; host or cells: COS 7
T3 sequence (P04150 1-777): T1 sequence (P04150 1-777)
Excerpt: The un-liganded GR is present in the cytoplasm of cells in association with heat shock proteins (HSPs). The binding of an agonist ligand to the GR causes dissociation from the HSPs and translocation to the nucleus. A type I antagonist ligand can bind to the GR but cannot translocate to the nucleus. A type II antagonist ligand can bind to the GR, translocate to the nucleus and bind to DNA but cannot activate gene transcription. Therefore, the ability of a putative ligand to translocate the GR helps to determine its status as an agonist or antagonist. COS 7 cells were transfected with 5 μg of a green fluorescent protein (GFP) tagged GR expression vector. After transfection, these cells were split into 6 well plates with sterile microscope cover slips placed at the bottom of each well. The cells were allowed to recover for 18 hours and then the medium was removed, the cells were washed three times with sterile phosphate buffered saline (PBS) and new medium was added containing charcoal stripped FCS in place of normal FCS. The cells were incubated for 18 hours and then the steroids of FIGS. 1 and 2A were added to make a final concentration of 100 nM. The cells were incubated for a further 3 hours and then the medium was aspirated and the cells were fixed to the glass coverslips by adding ice cold methanol and incubating at −20° C. for 30 mins. The coverslips with the transfected cells fixed to them were mounted on slides and the cellular localisation of the GFP tagged GR was analysed by fluorescent microscopy using an Axioplan 2 microscope (Zeiss, Oberkochen, Germany) and KS300 v3.0 analysis software (Zeiss).

Row | SMILES | liver TAT level compared with vehicle control groups [1] | Neutrophils (10^6 per mouse) ([2]; 3 μg i.p. at -1 h, Zymosan 1 mg into air-pouch, 4 h time-point, mean ± S.E. of 8 mice) | reduction of neutrophil accumulation ([2]; 3 μg i.p., zymosan air pouch, 4 h) | repression of P65 stimulation of an NFkB response element compared with dexamethasone (glucocorticoid receptor) | repression of TNF activation of A549 cells (NRE reporter gene) (endogenous GR) | repression of IL-8 production after TNF activation (IL-8) | nuclear translocation of the GFP tagged glucocorticoid receptor (GFP tagged GR)
1 | C[C@@H]1C[C@H]2[C@@H]3CCC4=CC(=O)C=C[C@]4(C)[C@@]3(F)[C@@H](O)C[C@]2(C)[C@@]1(O)C(=O)CO [Dexamethasone, reference compound] | further elevation of TAT | 6.23 ± 0.44 * 10^6 per mouse | ~30% | – | – | – | –
2 | CCCNC(=O)OCC(=O)C1(O)C(C)CC2C3CCC4=CC(=O)C=CC4(C)C3(F)C(O)CC21C (stereo not shown) [Compound H] | – | – | – | less potent than dexamethasone but produced the same maximal response at 100 nM | exhibited transrepression | exhibited transrepression | caused nuclear localisation
